Experimental data from patent US8658697B2 (priority 2004, dated 2014).

test system: Tacaribe virus (TRVL 11573); experiment: microbe, parasite or virus in culture; format: cell-based; conditions: Mammarenavirus tacaribeense, Vero, read-out: Tacaribe EC50

| SMILES | EC50 [nM] |
| --- | --- |
| CC(NC(=O)NNS(=O)(=O)c1cc(F)ccc1F)(C(F)(F)F)C(F)(F)F [Example 42, N-2-(1,1,1,3,3,3-Hexafluoro-2-methylpropyl)-2-[(2,5-difluorophenyl)sulfonyl]hydrazine-1-carboxamide] | 1000 to 5000 |
| Cc1ccc(S(=O)(=O)N(C)NC(=O)NC(C)(C(F)(F)F)C(F)(F)F)cc1 [Example 43, N-2-(1,1,1,3,3,3-Hexafluoro-2-methylpropyl)-2-[(4-methylphenyl)sulfonyl]-2-methylhydrazine-1-carboxamide] | 1000 to 5000 |
| CC(NC(=O)NNS(=O)(=O)c1c(Cl)cccc1Cl)(C(F)(F)F)C(F)(F)F [Example 44, N-2-(1,1,1,3,3,3-Hexafluoro-2-methylpropyl)-2-[(2,6-dichlorophenyl)sulfonyl]hydrazine-1-carboxamide] | 1000 to 5000 |
| CC(NC(=O)NNS(=O)(=O)c1c(C(F)(F)F)cccc1C(F)(F)F)(C(F)(F)F)C(F)(F)F [Example 45, N-2-(1,1,1,3,3,3-Hexafluoro-2-methylpropyl)-2-[(2,6-ditrifluoromethylphenyl)sulfonyl] hydrazine-1-carboxamide] | 1000 to 5000 |
| Cc1ccc(S(=O)(=O)NNC(=O)N(C)C(C)(C(F)(F)F)C(F)(F)F)cc1 [Example 46, N-2-(1,1,1,3,3,3-Hexafluoro-2-methylpropyl)-2-[(4-methylphenyl)sulfonyl]hydrazine-1-methylcarboxamide] | > 5000 |
| Cc1noc(C)c1S(=O)(=O)NNC(=O)NC(C)(C(F)(F)F)C(F)(F)F [Example 47, N-2-(1,1,1,3,3,3-Hexafluoro-2-methylpropyl)-2-[(3,5-dimethylisoxazol-5-yl)sulfonyl]hydrazine-1-carboxamide] | > 5000 |
| CC(NC(=O)NNS(=O)(=O)c1ccc([N+](=O)[O-])cc1)(C(F)(F)F)C(F)(F)F [Example 48, N-2-(1,1,1,3,3,3-Hexafluoro-2-methylpropyl)-2-[(4-nitrophenyl)sulfonyl]hydrazine-1-carboxamide] | > 5000 |
| Cn1cnc(S(=O)(=O)NNC(=O)NC(C)(C(F)(F)F)C(F)(F)F)c1 [Example 49, N-2-(1,1,1,3,3,3-Hexafluoro-2-methylpropyl)-2-[(1-methylimidazol-4-yl)sulfonyl]hydrazine-1-carboxamide] | > 5000 |
| CC(NC(=O)NNS(C)(=O)=O)(C(F)(F)F)C(F)(F)F [Example 50, N-2-(1,1,1,3,3,3-Hexafluoro-2-methylpropyl)-2-[methylsulfonyl]hydrazine-1-carboxamide] | > 5000 |
| CC(NC(=O)N1CCN(c2ccccc2)CC1)(C(F)(F)F)C(F)(F)F [Example 51, 4-Phenylpiperazine-1-(2,2,2-trifluoro-1-methyl-1-trifluoromethylethyl)-carboxamide] | < 500 |
| CC(NC(=O)N1CCOCC1)(C(F)(F)F)C(F)(F)F [Example 52, 4-Morpholino-1-(2,2,2-trifluoro-1-methyl-1-trifluoromethylethyl)-carboxamide] | < 500 |
| CC(=O)c1ccccc1NC(=O)NC(C)(C(F)(F)F)C(F)(F)F [Example 53, 1-(2-Acetylphenyl)-3-(2,2,2-trifluoro-1-methyl-1-trifluoromethylethyl)-urea] | 500 to 1000 |
| CC(NC(=O)N1CCCCC1)(C(F)(F)F)C(F)(F)F [Example 54, 1-Piperidino-1-(2,2,2-trifluoro-1-methyl-1-trifluoromethylethyl)-carboxamide] | 500 to 1000 |
| COc1cc(NC(=O)NC(C)(C(F)(F)F)C(F)(F)F)cc(OC)c1OC [Example 55, 1-(2,2,2-trifluoro-1-methyl-1-trifluoromethylethyl)-3-(3,4,5-trimethoxyphenyl)-urea] | 500 to 1000 |
| CC(NC(=O)Nc1ccc(C(F)(F)F)cc1)(C(F)(F)F)C(F)(F)F [Example 56, 1-(4-Trifluoromethylphenyl)-3-(2,2,2-trifluoro-1-methyl-1-trifluoromethylethyl)-urea] | 500 to 1000 |
| CN1CCN(C(=O)NC(C)(C(F)(F)F)C(F)(F)F)CC1 [Example 57, 4-Methylpiperazine-1-(2,2,2 trifluoro-1-methyl-1-trifluoromethylethyl)-carboxamide] | 1000 to 5000 |
| CC(NC(=O)Nc1cccc2ccccc12)(C(F)(F)F)C(F)(F)F [Example 58, 1-Naphthalen-1-yl-3-(2,2,2-trifluoro-1-methyl-1-trifluoromethylethyl)-urea] | 1000 to 5000 |
| CC(NC(=O)N1CCC(c2ccccc2)CC1)(C(F)(F)F)C(F)(F)F [Example 60, 4-Phenylpiperidin-1-yl-1-(2,2,2-trifluoro-1-methyl-1-trifluoromethylethyl)-carboxamide] | 1000 to 5000 |
| CC(NC(=O)Nc1ccccc1-c1ccccc1)(C(F)(F)F)C(F)(F)F [Example 61] | 1000 to 5000 |
| CC(NC(=O)Nc1c(F)cccc1F)(C(F)(F)F)C(F)(F)F [Example 62, 1-(2,6-Difluorophenyl)-3-(2,2,2-trifluoro-1-methyl-1-trifluoromethylethyl)-urea] | 1000 to 5000 |
| CC(NC(=O)Nc1ccccc1C(N)=O)(C(F)(F)F)C(F)(F)F [Example 63, 2-[3-(1,1-Bis-trifluoromethylethyl)-ureido]benzamide] | 1000 to 5000 |
| CC(NC(=O)Nc1c(F)cccc1Cl)(C(F)(F)F)C(F)(F)F [Example 64, 1-(2-Chloro-6-fluorophenyl)-3-(2,2,2-trifluoro-1-methyl-1-trifluoromethylethyl)-urea] | 1000 to 5000 |

| SMILES | EC50 [nM] |
| --- | --- |
| CC(NC(=O)Nc1cccc(C(F)(F)F)c1)(C(F)(F)F)C(F)(F)F [Example 65, 1-(3-Trifluoromethylphenyl)-3-(2,2,2-trifluoro-1-methyl-1-trifluoromethylethyl)-urea] | 1000 to 5000 |
| CC(NC(=O)Nc1ccccc1S(N)(=O)=O)(C(F)(F)F)C(F)(F)F [Example 66, 2-[3-(1,1-Bis-trifluoromethylethyl)-ureido]benzenesulfonamide] | 1000 to 5000 |
| CC(NC(=O)Nc1cccc2c1OC(F)(F)C(F)(F)O2)(C(F)(F)F)C(F)(F)F [Example 67, 1-(2,2,3,3-Tetrafluoro-2,3-dihydrobenzo[1,4]dioxin-5-yl)-3-(2,2,2-trifluoro-1-methyl-1-trifluoromethylethyl)-urea] | 1000 to 5000 |
| CC(NC(=O)Nc1cccc(OC(F)(F)F)c1)(C(F)(F)F)C(F)(F)F [Example 68, 1-(3-Trifluoromethoxyphenyl)-3-(2,2,2-trifluoro-1-methyl-1-trifluoromethylethyl)-urea] | 1000 to 5000 |
| CC(NC(=O)Nc1ccc(OC(F)(F)F)cc1)(C(F)(F)F)C(F)(F)F [Example 69, 1-(4-Trifluoromethoxyphenyl)-3-(2,2,2-trifluoro-1-methyl-1-trifluoromethylethyl)-urea] | 1000 to 5000 |
| CC1CCN(C(=O)NC(C)(C(F)(F)F)C(F)(F)F)CC1 [Example 70, 4-Methyl-1-piperidine-1-(2,2,2-trifluoro-1-methyl-1-trifluoromethylethyl)-carboxamide] | 1000 to 5000 |
| CC(NC(=O)Nc1ccc2ccccc2c1)(C(F)(F)F)C(F)(F)F [Example 71, 1-Naphthalen-2-yl-3-(2,2,2-trifluoro-1-methyl-1-trifluoromethylethyl)-urea] | 1000 to 5000 |
| CC(NC(=O)Nc1ccccc1F)(C(F)(F)F)C(F)(F)F [Example 72, 1-(2-fluorophenyl)-3-(2,2,2-trifluoro-1-methyl-1-trifluoromethylethyl)-urea] | 1000 to 5000 |
| COc1cccc(OC)c1NC(=O)NC(C)(C(F)(F)F)C(F)(F)F [Example 73, l-(2,6-Dimethoxyphenyl)-3-(2,2,2-trifluoro-1-methyl-1-trifluoromethylethyl)-urea] | 1000 to 5000 |
| CC(NC(=O)Nc1ccc(C(=O)O)cc1OC(F)(F)F)(C(F)(F)F)C(F)(F)F [Example 74, 3-Trifluormethoxy-4-[3-(1,1-bis-trifluoromethylethyl)-ureido]benzoic acid] | 1000 to 5000 |
| CC(NC(=O)Nc1ccccc1)(C(F)(F)F)C(F)(F)F [Example 75, 1-Phenyl-3-(2,2,2-trifluoro-1-methyl-1-trifluoromethylethyl)-urea] | 1000 to 5000 |
| CC(NC(=O)Nc1cccc(C#N)c1)(C(F)(F)F)C(F)(F)F [Example 76, 1-(3-Cyanophenyl)-3-(2,2,2-trifluoro-1-methyl-1-trifluoromethylethyl)-urea] | 1000 to 5000 |
| COc1cccc(NC(=O)NC(C)(C(F)(F)F)C(F)(F)F)c1 [Example 77, 1-(3-Methoxyphenyl)-3-(2,2,2-trifluoro-1-methyl-1-trifluoromethylethyl)-urea] | 1000 to 5000 |
| CC(NC(=O)Nc1ccccc1OC(F)(F)C(F)F)(C(F)(F)F)C(F)(F)F [Example 78, 1-(2-(1,1,2,2-Tetrafluoroethoxy)phenyl)-3-(2,2,2-trifluoro-1-methyl-1-trifluoromethylethyl)-urea] | 1000 to 5000 |
| CC(NC(=O)Nc1cccc(S(N)(=O)=O)c1)(C(F)(F)F)C(F)(F)F [Example 79, 3-[3-(1,1-Bis-trifluoromethylethyl)-ureido]benzenesulfonamide] | 1000 to 5000 |
| CC(NC(=O)Nc1cccc(F)c1)(C(F)(F)F)C(F)(F)F [Example 80, 1-(3-fluorophenyl)-3-(2,2,2-trifluoro-1-methyl-1-trifluoromethylethyl)-urea] | 1000 to 5000 |
| CC(NC(=O)Nc1ccc(Br)cc1)(C(F)(F)F)C(F)(F)F [Example 81, 1-(4-Bromophenyl)-3-(2,2,2-trifluoro-1-methyl-1-trifluoromethylethyl)-urea] | 1000 to 5000 |
| CC(NC(=O)Nc1ccccc1C#N)(C(F)(F)F)C(F)(F)F [Example 82, 1-(2-Cyanophenyl)-3-(2,2,2-trifluoro-1-methyl-1-trifluoromethylethyl)-urea] | 1000 to 5000 |
| CC(NC(=O)Nc1ccc(C#N)cc1)(C(F)(F)F)C(F)(F)F [Example 83, 1-(4-Cyanophenyl)-3-(2,2,2-trifluoro-1-methyl-1-trifluoromethylethyl)-urea] | 1000 to 5000 |
| CC(NC(=O)Nc1cccc2c1OC(F)(F)O2)(C(F)(F)F)C(F)(F)F [Example 84, 1-(2,2-Difluorobenzo[1,3]dioxol-4-yl)-3-(2,2,2-trifluoro-1-methyl-1-trifluoromethylethyl)-urea] | 1000 to 5000 |
| CC(NC(=O)Nc1ccc(Cl)cc1)(C(F)(F)F)C(F)(F)F [Example 85, 1-(4-Chlorophenyl)-3-(2,2,2-trifluoro-1-methyl-1-trifluoromethylethyl)-urea] | > 5000 |
